Reference: publication PMC6627609, “Targeting Quorum Sensing: High-Throughput Screening to Identify Novel LsrK Inhibitors” (International Journal of Molecular Sciences, 2019)
Where a name gives a salt, the structure may show the parent alone.

What follows are compounds tested against LsrK (Salmonella typhimurium, UniProt Q8ZKQ6) (assay: biochemical). Settings: not given.
LsrK, sequence (Q8ZKQ6 whole entry): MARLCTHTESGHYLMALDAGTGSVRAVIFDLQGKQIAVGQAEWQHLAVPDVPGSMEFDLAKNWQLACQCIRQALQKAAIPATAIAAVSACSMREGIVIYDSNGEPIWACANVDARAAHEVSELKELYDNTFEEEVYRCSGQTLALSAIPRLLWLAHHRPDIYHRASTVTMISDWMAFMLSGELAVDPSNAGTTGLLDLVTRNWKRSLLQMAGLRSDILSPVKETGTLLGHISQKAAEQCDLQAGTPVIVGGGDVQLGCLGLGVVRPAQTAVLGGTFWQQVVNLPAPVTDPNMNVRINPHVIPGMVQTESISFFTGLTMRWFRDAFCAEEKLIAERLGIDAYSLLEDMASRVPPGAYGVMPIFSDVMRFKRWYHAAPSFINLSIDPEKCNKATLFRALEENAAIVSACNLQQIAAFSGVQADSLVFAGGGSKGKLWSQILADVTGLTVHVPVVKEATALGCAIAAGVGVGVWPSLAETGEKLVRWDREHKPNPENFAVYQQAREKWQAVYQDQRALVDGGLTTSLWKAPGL
Assay type: biochemical, S. typhimurium
`NC(=O)c1cccnc1` [NIACINAMIDE] showed an inhibition at 50 µM of 1%. `O=C(CCNNC(=O)c1ccncc1)NCc1ccccc1` [NIALAMIDE] showed an inhibition at 50 µM of 3%. In the case of `O=C(Nc1ccc([N+](=O)[O-])cc1Cl)c1cc(Cl)ccc1O` [NICLOSAMIDE], the inhibition at 50 µM is reported as 0%. In the case of `OCc1cccnc1` [NICOTINYL ALCOHOL TARTRATE], the inhibition at 50 µM is reported as 1%. For `COC(=O)C1=C(C)NC(C)=C(C(=O)OC)C1c1ccccc1[N+](=O)[O-]` [NIFEDIPINE], the inhibition at 50 µM was 98%. `O=C(O)C1CCCNC1` (stereo not shown) [NIPECOTIC ACID] gave an inhibition at 50 µM of 0%. With `COC(=O)C1=C(C)NC(C)=C(C(=O)OCC(C)C)C1c1ccccc1[N+](=O)[O-]` (stereo not shown) [NISOLDIPINE] the inhibition at 50 µM was 154%. Compound `CCOC(=O)C1=C(C)NC(C)=C(C(=O)OC)C1c1cccc([N+](=O)[O-])c1` (stereo not shown) [NITRENDIPINE] has an inhibition at 50 µM of 1%. In the case of `NC[C@H](O)c1ccc(O)c(O)c1` [NOREPINEPHRINE, reference compound], the IC50 is reported as 30 µM and the inhibition at 50 µM is reported as 74%. For `C#C[C@]1(O)CC[C@H]2[C@@H]3CCC4=CC(=O)CC[C@@H]4[C@H]3CC[C@@]21C` [NORETHINDRONE], the inhibition at 50 µM was 0%. `C#C[C@]1(O)CC[C@H]2[C@@H]3CCC4=C(CCC(=O)C4)[C@H]3CC[C@@]21C` [NORETHYNODREL] was tested, and the inhibition at 50 µM was 1%. For `c1ccc2c(c1)[nH]c1cnccc12` [NORHARMAN], the inhibition at 50 µM was 1%. With `COc1ccc2c(c1OC)C(=O)O[C@@H]2[C@H]1c2c(cc3c(c2OC)OCO3)CCN1C` [NOSCAPINE HYDROCHLORIDE] the inhibition at 50 µM was 1%. `CO[C@@H]1[C@@H](OC(N)=O)[C@@H](O)[C@H](Oc2ccc3c(O)c(NC(=O)c4ccc(O)c(CC=C(C)C)c4)c(=O)oc3c2C)OC1(C)C` [NOVOBIOCIN SODIUM] was tested, and the inhibition at 50 µM was 0%. `COC1=CC(=O)C(O)=C/C1=C\C=C\c1ccccc1` [OBTUSAQUINONE] gave an inhibition at 50 µM of 130%. For `NCC(O)c1ccc(O)cc1` (stereo not shown) [OCTOPAMINE HYDROCHLORIDE], the inhibition at 50 µM was 2%. `CC1COc2c(N3CCN(C)CC3)c(F)cc3c(=O)c(C(=O)O)cn1c23` (stereo not shown) [OFLOXACIN] was tested, and the inhibition at 50 µM was 4%. Work on `CCCc1nc(C(C)(C)O)c(C(=O)OCc2oc(=O)oc2C)n1Cc1ccc(-c2ccccc2-c2nnn[nH]2)cc1` [OLMESARTAN MEDOXOMIL] yielded an inhibition at 50 µM of 0%. In the case of `COc1ccc2[nH]c([S+]([O-])Cc3ncc(C)c(OC)c3C)nc2c1` (stereo not shown) [OMEPRAZOLE], the inhibition at 50 µM is reported as 6%. `COc1ccc(CC(=O)c2ccc(O)cc2O)cc1` [ONONETIN] showed an inhibition at 50 µM of 5%. For `NCCC[C@H](N)C(=O)O` [ORNITHINE], the inhibition at 50 µM was 1%. `O=C(O)c1cc(=O)[nH]c(=O)[nH]1` [OROTIC ACID] gave an inhibition at 50 µM of 1%. For `O=C(O)CCc1nc(-c2ccccc2)c(-c2ccccc2)o1` [OXAPROZIN], the inhibition at 50 µM was 13%. With `CN(C(=O)CN(CCO)CC(=O)N(C)C(C)(C)Cc1ccccc1)C(C)(C)Cc1ccccc1` [OXETHAZAINE] the inhibition at 50 µM was 0%. In the case of `COC(=O)Nc1nc2ccc([S+]([O-])c3ccccc3)cc2[nH]1` (stereo not shown) [OXFENDAZOLE], the inhibition at 50 µM is reported as 27%. `CCCOc1ccc2nc(NC(=O)OC)[nH]c2c1` [OXIBENDAZOLE] gave an inhibition at 50 µM of 2%. In the case of `NCCc1cc(O)c(O)cc1O` [OXIDOPAMINE HYDROCHLORIDE], the inhibition at 50 µM is reported as 117%. With `CCn1cc(C(=O)O)c(=O)c2cc3c(cc21)OCO3` [OXOLINIC ACID] the inhibition at 50 µM was 1%. With `CCCCC1C(=O)N(c2ccccc2)N(c2ccc(O)cc2)C1=O` (stereo not shown) [OXYPHENBUTAZONE] the inhibition at 50 µM was 93%. Compound `CC[N+](C)(CC)CCOC(=O)C(O)(c1ccccc1)C1CCCCC1` (stereo not shown) [OXYPHENONIUM BROMIDE] has an inhibition at 50 µM of 4%. `CN(C)[C@@H]1C(O)=C(C(N)=O)C(=O)[C@@]2(O)C(O)=C3C(=O)c4c(O)cccc4[C@@](C)(O)[C@H]3[C@H](O)[C@@H]12` [OXYTETRACYCLINE] showed an inhibition at 50 µM of 94%. For `CC(=O)O[C@H]1C[C@@H]2CC[C@@H]3[C@H](CC[C@@]4(C)[C@H]3C[C@H]([N+]3(C)CCCCC3)[C@@H]4OC(C)=O)[C@@]2(C)C[C@@H]1[N+]1(C)CCCCC1` [PANCURONIUM BROMIDE], the inhibition at 50 µM was 0%. Work on `CC(C)(CO)[C@@H](O)C(=O)NCCC(=O)NCCSSCCNC(=O)CCNC(=O)[C@H](O)C(C)(C)CO` [PANTETHINE] yielded an inhibition at 50 µM of 0%. With `COc1ccnc(C[S+]([O-])c2nc3ccc(OC(F)F)cc3[nH]2)c1OC` (stereo not shown) [PANTOPRAZOLE] the inhibition at 50 µM was 3%. In the case of `COc1ccc(Cc2nccc3cc(OC)c(OC)cc23)cc1OC` [PAPAVERINE HYDROCHLORIDE], the inhibition at 50 µM is reported as 1%. In the case of `Oc1ccc(Cl)cc1` [PARACHLOROPHENOL], the inhibition at 50 µM is reported as 1%. With `N=C1C=CC(=C(c2ccc(N)cc2)c2ccc(N)cc2)C=C1` [PARA[…]] the inhibition at 50 µM was 138%. With `NC[C@@H]1O[C@H](O[C@H]2[C@@H](O)[C@H](O[C@@H]3[C@@H](O)[C@H](N)C[C@H](N)[C@H]3O[C@H]3O[C@H](CO)[C@@H](O)[C@H](O)[C@H]3N)O[C@@H]2CO)[C@H](N)[C@@H](O)[C@@H]1O` [PAROMOMYCIN SULFATE] the inhibition at 50 µM was 3%. Compound `Fc1ccc([C@@H]2CCNC[C@H]2COc2ccc3c(c2)OCO3)cc1` [PAROXETINE HYDROCHLORIDE] has an inhibition at 50 µM of 1%. `C=C1C(=O)O[C@H]2[C@H]1CC/C(C)=C/CC[C@@]1(C)O[C@@H]21` [PARTHENOLIDE] was tested, and the inhibition at 50 µM was 3%. Compound `O=C1C=C2C(=CCOC2O)O1` (stereo not shown) [PATULIN] has an inhibition at 50 µM of 99%. Work on `CN1C(C)(C)CCCC1(C)C` [PEMPIDINE TARTRATE] yielded an inhibition at 50 µM of 2%. Compound `CC1(C)S[C@@H]2[C@H](NC(=O)Cc3ccccc3)C(=O)N2[C@H]1C(=O)O` [PENICILLIN G POTASSIUM] has an inhibition at 50 µM of 4%. With `C1CCc2nnnn2CC1` [PENTYLENETETRAZOL] the inhibition at 50 µM was 0%. In the case of `C1CCC(C(CC2CCCCN2)C2CCCCC2)CC1` (stereo not shown) [PERHEXILINE MALEATE], the inhibition at 50 µM is reported as 1%. `N#Cc1ccc2c(c1)N(CCCN1CCC(O)CC1)c1ccccc1S2` [PERICIAZINE] was tested, and the inhibition at 50 µM was 4%. For `CCC[C@H](N[C@@H](C)C(=O)N1[C@H](C(=O)O)C[C@@H]2CCCC[C@@H]21)C(=O)OCC` [PERINDOPRIL ERBUMINE], the inhibition at 50 µM was 15%. Compound `CO[C@H]1[C@H](O)[C@H](O[C@H]2CC[C@@]3(C=O)[C@H](CC[C@@H]4[C@@H]3CC[C@]3(C)[C@@H](C5=CC(=O)OC5)CC[C@]43O)C2)O[C@@H](C)[C@@H]1O` [PERUVOSIDE] has an inhibition at 50 µM of 1%. Compound `NCC(=O)c1ccccc1` [PHENACYLAMINE HYDROCHLORIDE] has an inhibition at 50 µM of 1%. Compound `[H]/N=C(/N)N/C(=N/[H])NCCc1ccccc1` [PHENFORMIN HYDROCHLORIDE] has an inhibition at 50 µM of 0%. For `CN(C)CCC(c1ccccc1)c1ccccn1` (stereo not shown) [PHENIRAMINE MALEATE], the inhibition at 50 µM was 3%. For `O=C1OC(c2ccc(O)cc2)(c2ccc(O)cc2)c2ccccc21` [PHENOLPHTHALEIN], the inhibition at 50 µM was 0%. In the case of `CC(COc1ccccc1)N(CCCl)Cc1ccccc1` (stereo not shown) [PHENOXYBENZAMINE HYDROCHLORIDE], the inhibition at 50 µM is reported as 1%. `CC(C)(N)Cc1ccccc1` [PHENTERMINE] showed an inhibition at 50 µM of 15%. Work on `Cc1ccc(N(CC2=NCCN2)c2cccc(O)c2)cc1` [PHENTOLAMINE HYDROCHLORIDE] yielded an inhibition at 50 µM of 0%. Work on `CCCCC1C(=O)N(c2ccccc2)N(c2ccccc2)C1=O` [PHENYLBUTAZONE] yielded an inhibition at 50 µM of 0%. In the case of `O=C(CCc1ccc(O)cc1)c1c(O)cc(O)cc1O` [PHLORETIN], the inhibition at 50 µM is reported as 60%. For `O=C(O)c1ccccc1C(=O)Nc1ccc(S(=O)(=O)Nc2nccs2)cc1` [PHTHALYLSULFATHIAZOLE], the inhibition at 50 µM was 1%. With `CNC(=O)Oc1ccc2c(c1)[C@]1(C)CCN(C)[C@@H]1N2C` [PHYSOSTIGMINE SALICYLATE] the inhibition at 50 µM was 1%. Compound `CC(C)(O)[C@@H]1[C@H]2OC(=O)[C@@H]1[C@]1(O)C[C@H]3O[C@]34C(=O)O[C@H]2[C@]14C` [PICROTIN] has an inhibition at 50 µM of 1%. `CN1CCC(=C2c3ccccc3Sc3ccccc32)CC1` [PIMETHIXENE MALEATE] was tested, and the inhibition at 50 µM was 0%. With `CCc1ccc(CCOc2ccc(CC3SC(=O)NC3=O)cc2)nc1` (stereo not shown) [PIOGLITAZONE HYDROCHLORIDE] the inhibition at 50 µM was 0%. Compound `O=C(O)/C=C/C=C/c1ccc2c(c1)OCO2` [PIPERIC ACID] has an inhibition at 50 µM of 0%. For `O=C(/C=C/C=C/c1ccc2c(c1)OCO2)N1CCCCC1` [PIPERINE], the inhibition at 50 µM was 1%. `O=C(O)c1ccc2c(c1)OCO2` [PIPERONYLIC ACID] showed an inhibition at 50 µM of 1%. Compound `CCn1cc(C(=O)O)c(=O)c2cnc(N3CCCC3)nc21` [PIROMIDIC ACID] has an inhibition at 50 µM of 19%. `O=C(O)[C@@H](O)[C@](O)(Cc1ccc(O)cc1)C(=O)O` [PISCIDIC ACID] was tested, and the inhibition at 50 µM was 2%.

Same assay, conditions: 50 µM
In the case of `CN1CCC[C@H]1c1cccnc1.O=C(O)C(O)C(O)C(=O)O.O=C(O)C(O)C(O)C(=O)O` [NICOTINE DITARTRATE], the “Inhibition (%)” value is reported as 0. For `NC(=O)c1cc([N+](=O)[O-])cc([N+](=O)[O-])c1` [NITROMIDE], the “Inhibition (%)” value was 1. With `C[C@@H]1[C@H](O)[C@@H](C)/C=C/C=C/CC/C=C/C=C/C=C/C=C/C(O[C@H]2O[C@H](C)[C@@H](O)[C@H](N)[C@@H]2O)CC2O[C@](O)(CC(O)C(O)CCC(O)CC(O)CC(O)CC(=O)O[C@H]1C)CC(O)C2C(=O)O` (stereo partly shown) [NYSTATIN] the “Inhibition (%)” value was 41. In the case of `CC(=O)O[C@H]1CC[C@]2(C)[C@H]3CC=C4[C@@H]5CC(C)(C)CC[C@]5(C(=O)O)CC[C@@]4(C)[C@]3(C)CC[C@H]2C1(C)C` [OLEANOLIC ACID ACETATE], the “Inhibition (%)” value is reported as 14. For `CN1CCCN=C1/C=C/c1cccc(O)c1.O=C(O)c1cc2ccccc2c(Cc2c(O)c(C(=O)O)cc3ccccc23)c1O` [OXANTEL PAMOATE], the “Inhibition (%)” value was 6. In the case of `COC[C@]12CN(C=O)[C@@H]3[C@@H]4[C@H](OC)[C@H]1[C@@]3([C@@H](OC)C[C@H]2O)[C@@H]1C[C@@]2(O)[C@H](OC(=O)c3ccccc3)[C@@H]1[C@]4(OC(C)=O)[C@@H](O)[C@@H]2OC` [OXONITINE], the “Inhibition (%)” value is reported as 0. For `COc1cc2c(cc1-c1cc3cc4ccoc4cc3oc1=O)OCO2` [PACHYRRHIZIN], the “Inhibition (%)” value was 1. `CCn1cc(C(=O)O)c(=O)c2cc(F)c(N3CCN(C)CC3)cc21.CS(=O)(=O)O` [PEFLOXACINE MESYLATE] was tested, and the “Inhibition (%)” value was 2. For `CC(=O)OCC(OC(C)=O)C(OC(C)=O)C(OC(C)=O)C(OC(C)=O)C(COC(C)=O)OC(C)=O` (stereo not shown) [PERSITOL HEPTAACETATE], the “Inhibition (%)” value was 3. For `CC(=O)c1c(O)cc(O)cc1O` [PHLORACETOPHENONE], the “Inhibition (%)” value was 1. For `Cl.c1cnc(N2CCN(Cc3ccc4c(c3)OCO4)CC2)nc1` [PIRIBEDIL HYDROCHLORIDE], the “Inhibition (%)” value was 3.
